Marks after values point to notes of the source that are not given here.
What was measured:
[1] = target: KOR (Homo sapiens, UniProt P41145); test: [^35S]GTPγS assay, agonist mode; assay type: biochemical; settings: 10 µM, KOR-CHO cells, compared to vehicle
[2] = target: KOR (Cavia porcellus, UniProt P41144); test: GPI/LMMP assay, inhibition of electrically stimulated muscle contraction; assay type: cell-based, guinea pig
[3] = target: hMOR (Homo sapiens, UniProt P35372); test: Radioligand competition binding, [^3H]diprenorphine or [^3H]DAMGO; settings: [^3H]diprenorphine, Kd = 2.81 nM; NC = no competition
[4] = target: KOR (Mus musculus, UniProt P33534); test: Tail flick test, pretreatment before KOR agonist 17; assay type: in vivo, mice; settings: 10 µg in 5 µL l.p., 15 min before 17 (10 µg)
[5] = Tail flick test, 52 °C water, compound alone

Chain of KOR (Homo sapiens, UniProt P41145) (P41145 whole entry): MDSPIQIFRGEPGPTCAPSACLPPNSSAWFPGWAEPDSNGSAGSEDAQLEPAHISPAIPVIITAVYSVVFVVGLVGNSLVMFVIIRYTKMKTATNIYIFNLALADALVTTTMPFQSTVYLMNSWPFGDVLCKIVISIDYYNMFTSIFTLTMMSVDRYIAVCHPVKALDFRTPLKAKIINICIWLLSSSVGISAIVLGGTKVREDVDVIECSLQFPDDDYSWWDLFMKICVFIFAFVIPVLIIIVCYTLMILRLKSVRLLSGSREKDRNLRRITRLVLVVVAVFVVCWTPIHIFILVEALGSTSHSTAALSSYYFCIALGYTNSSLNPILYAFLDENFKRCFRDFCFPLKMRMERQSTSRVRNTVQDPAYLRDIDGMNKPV
Chain of KOR (Cavia porcellus, UniProt P41144) (P41144 whole entry): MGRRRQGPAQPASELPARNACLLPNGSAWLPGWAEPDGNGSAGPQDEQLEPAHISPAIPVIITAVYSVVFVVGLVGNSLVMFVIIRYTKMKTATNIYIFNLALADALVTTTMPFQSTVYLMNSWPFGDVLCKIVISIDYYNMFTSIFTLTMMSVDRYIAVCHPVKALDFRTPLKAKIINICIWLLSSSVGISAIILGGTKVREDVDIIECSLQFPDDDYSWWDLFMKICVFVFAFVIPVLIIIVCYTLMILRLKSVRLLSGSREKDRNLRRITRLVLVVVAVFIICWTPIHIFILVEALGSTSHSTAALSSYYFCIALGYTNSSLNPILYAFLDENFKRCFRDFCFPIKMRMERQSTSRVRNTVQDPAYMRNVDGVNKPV
Chain of KOR (Mus musculus, UniProt P33534) (P33534 whole entry): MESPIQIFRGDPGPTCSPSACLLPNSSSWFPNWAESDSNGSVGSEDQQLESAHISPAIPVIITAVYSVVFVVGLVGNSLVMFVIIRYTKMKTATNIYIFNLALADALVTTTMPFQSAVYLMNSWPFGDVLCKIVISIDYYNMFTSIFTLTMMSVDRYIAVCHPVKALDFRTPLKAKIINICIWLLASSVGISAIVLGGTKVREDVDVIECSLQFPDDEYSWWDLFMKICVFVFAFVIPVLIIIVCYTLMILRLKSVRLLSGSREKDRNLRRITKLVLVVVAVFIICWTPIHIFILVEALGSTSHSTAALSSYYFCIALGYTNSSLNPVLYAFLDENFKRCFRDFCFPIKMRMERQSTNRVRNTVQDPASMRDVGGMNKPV
Chain of hMOR (P35372 whole entry): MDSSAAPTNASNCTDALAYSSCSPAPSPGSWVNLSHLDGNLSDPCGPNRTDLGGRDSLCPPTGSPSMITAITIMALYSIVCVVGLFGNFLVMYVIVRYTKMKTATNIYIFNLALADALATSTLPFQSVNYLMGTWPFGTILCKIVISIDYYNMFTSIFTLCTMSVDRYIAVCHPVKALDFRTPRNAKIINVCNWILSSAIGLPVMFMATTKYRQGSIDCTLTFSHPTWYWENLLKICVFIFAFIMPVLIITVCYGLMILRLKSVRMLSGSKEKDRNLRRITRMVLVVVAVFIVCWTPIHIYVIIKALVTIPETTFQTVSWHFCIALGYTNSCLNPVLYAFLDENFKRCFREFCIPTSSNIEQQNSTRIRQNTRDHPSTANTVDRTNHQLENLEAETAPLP

Ac-YGGFLRIRPK-NH2 [compound 5]
KOR activation [1]: did not show KOR activation
percent of agonist activity ([2]; 1 µM test compound, compared to average signal 3 min prior to drug): 0% ^b
agonist response in GPI/LMMP ([2]; in words): did not show significant responses

Ac-YGPFLRIRPK-NH2 [compound 8]
Ki [3]: no competition

H-YGGFLRIRPK-NH2 [compound 3]
KOR activation [1]: significant activation

H-YGPFLRIRPK-NH2 [compound 7]
blockade of antinociceptive effect of 17 [4]: significantly blocked
elevation of TWL, % of max response ([5]; 10 µg in 5 µL i.t., 30 min): 39.45 ± 6.95%
tail withdrawal latency (antinociceptive effect) ([5]; 0.1, 1.0 and 10 µg in 5 µL i.t., compared to vehicle): significantly elevated tail withdrawal latency
